Literature values, collected in PMC8845813 (Angewandte Chemie (International ed. in English), 2021).

System: LC3A and LC3B LIR-interaction interface

SMILES: CO[C@@H]1[C@@H](OC(N)=O)[C@@H](O)[C@H](Oc2ccc3c(O)c(NC(=O)c4ccc(O)c(CC=C(C)C)c4)c(=O)oc3c2C)OC1(C)C [novobiocin]
- potency at LC3A and LC3B LIR-interaction interface: weak potency
